The record followed here is publication PMC11842024, “Reversible male contraception by targeted inhibition of serine/threonine kinase 33” (Science (New York, N.Y.), 2024).

Data set [1] can be described thus: CDD-2807 concentrations in mouse brain, liver, lung, and testis. Format: in vivo, mice. Here is the method: Pharmacokinetics (PK) of CDD-2807 in mice. The pharmacokinetic studies (72) of CDD-2807 were performed at three doses via intraperitoneal (i.p.) injection and oral (p.o.) administration.
CDD-2807 was dissolved in 10% Captisol containing 5% DMSO to prepare the solutions of 0.5 mg/mL, 2.5 mg/mL and 5.0 mg/mL. Twelve male mice (strain: C57BL/6NJ, 8−12 weeks) were divided equally and randomly into 4 groups (n = 3 for each dose). One group of mice were administered 5 mg/kg CDD-2807 (i.p., 10 µL/g of 0.5 mg/mL solution), the second group 25 mg/kg CDD-2807 (i.p., 10 µL/g of 2.5 mg/mL solution), the third group 5 mg/kg CDD-2807 (p.o., 10 µL/g of 0.5 mg/mL solution), and the fourth group 50 mg/kg CDD-2807 (p.o., 10 µL/g of 5.0 mg/mL solution). At 0, 5, 10, 15, 30 min, 1, 2, 4, 6, 8, 24 h post-dose, around 20 µL of blood was collected from the tail vein and anti-coagulated by heparin. The blood samples were centrifuged at 2000 g for 3 min at 4°C, and the plasma samples were transferred to tubes and stored at −80°C before analysis. All the samples were analyzed by the Thermo TSQ Quantis MS coupled with a Thermo Vanquish UHPLC (San Jose, CA). CDD-2807 was separated on a Luna C18 column (1 mm × 50 mm, 1.6 µm, Phenomenex, Torrance, CA), and eluted by a water-acetonitrile mobile phase system (both containing 0.1% formic acid, v/v) at the flow rate of 0.15 mL/min. CDD-2807 was monitored under the SRM mode coupled with a positive ESI source. The SRM ion pairs were 447→321 for CDD-2807. The ion spray voltage was set at 3500 V. High-purity nitrogen was used as the sheath gas (35 arbitrary unit), auxiliary gas (7 arbitrary unit), and high-purity argon was used as the collision gas. The temperatures of the ion transfer tube and the vaporizer were set at 300°C and 275°C, respectively. The concentration of CDD-2807 in plasma was quantified using individual calibration curves. The calibration curve was regressed with a weight of 1/x2 with high linearity (r2 >0.99). PK parameters, including half-time (t1/2), area under the plasma concentration– time curve from zero to infinity (AUC0–∞), clearance normalized by the bioavailability (CL/F), volume of distribution normalized by the bioavailability (Vd/F), and the mean residence time (MRT), were calculated by WinNonlin software (Certara, Princeton, NJ) by noncompartmental […]
analysis. […]
CDD-2807 concentrations in mouse brain, liver, lung, and testis. Tissue samples harvested from mice on day 45 of protocol 1 and at 24-hour, day 7, and day 63 of protocol 2 were weighed and snap-frozen in liquid nitrogen. The samples were stored at −80°C before analysis. Twenty-five mg of tissue was homogenized in 150 µL of 50% CH3OH, and 50 µL of homogenate was added to 200 µL of ice-cold CH3OH containing 0.1 µM of agomelatine (internal standard). The mixture was vortexed and centrifuged at 15000 g for 15 min, and supernatants were transferred into sample vials for analysis. CDD-2807 was analyzed by the same method used in the pharmacokinetic study. The concentration of CDD-2807 in the testis and brain was determined by […]
using individual calibration curves established with the corresponding tissue homogenates from untreated mice. The calibration curve was regressed with a weight of 1/x2 with high linearity (r2 […]
Spatial distribution of CDD-2807 in testis. The testis from the mice treated with CDD-2807 were attached to the Leica CM3050 S cryostat (Leica Biosystems, Deer Park, IL) with water and then sectioned at the thickness of 10 μm at −20°C. The sections were attached to electrically conductive glass slides coated with indium tin oxide ([…], 70-100 ohms, Delta Technologies, Loveland, CO). Tissue sections were sprayed with a matrix solution containing 35 mg/mL 2,5-dihydroxybenzoic acid (DHB, Sigma, St. Louis, MO) in 70% aqueous CH3OH with 0.1% trifluoroacetic acid using an HTX TM-Sprayer (HTX Technologies LLC, Carrboro, NC). Sprayer nozzle temperature was set at 70°C, tray temperature at 40°C, nozzle velocity at 1200 mm/min, […]

The subject of the next data set is male mice. The experiment in a line: Histological analysis of testis and epididymis. The format is in vivo. From the text:
fig. S24. Histological analysis of testis and epididymis segments (caput & corpus) from control and CDD-2807-treated male mice from protocol 1. Bouin’s fixed, 4 µm-cross sections of the testis (A) and horizontal sections of the epididymis (B) were stained with PAS-hematoxylin.
All 12 stages of spermatogenesis are represented in both control and CDD-2807-treated mice and show normal tissue morphology and acrosome development. Epididymis from the control and CDD-2807-treated mice were similar histologically. Scale bars are 60 µm.
(1 picture or pasted object on this page, not shown here) […]
fig. S25. Histological analysis of testis and epididymis segments (caput & corpus) from control and CDD-2807-treated male mice from protocol 2. Bouin’s fixed, 4 µm-cross sections of the testis (A) and longitudinal sections of the epididymis (B) were stained with PAS-hematoxylin. All 12 stages of spermatogenesis are represented in both control and CDD-2807-treated mice, although it was difficult to find all stages in the CDD-2807-treated mice. Epididymis from the control and CDD-2807-treated mice were very different histologically, control mice had normal sperm cells, while CDD-2807 mice had occasional round spermatids present in the epididymis. Scale bars are 60 µm.

Each structure is given as a SMILES string.

On to `O=C(c1ccc2[nH]nc(C#Cc3ccccc3-c3ccccc3)c2c1)N1CC2(CCCNC2)C1` [CDD-2807], for which the concentration at 7 day in data set [1] (C57/129 hybrid, mouse, testis, intraperitoneal, 50 mg/kg/day over 7 days) is around 24000 ng/g. The concentration at 45 day in data set [1] (male, C57/129 hybrid, mouse, testis, ip, protocol 1 (15 mg/kg i.p. twice per day), day 45) worked out at 89600 ± 14100 ng/g. This molecule showed a concentration at 63 day in data set [1] (male, C57/129 hybrid, mouse, testis, ip, protocol 2 (50 mg/kg i.p. once per day), day 63) of 114000 ± 7900 ng/g. In addition, the CDD-2807 in brain in data set [1] (protocol 1, day 45, collection 12 hours after dosing) is 0.28 ± 0.09 ng of CDD-2807 per milligram of tissue; in data set [1] (protocol 2, day 63, collection 24 hours after dosing), “undetectable”. In data set [1] (protocol 1 and 2 mice), the CDD-2807 in lung entry was “low levels”. In the data set on male mice (protocol 1), the “histology of testes and epididymis” value is reported as “no detectable defects”. Also, the histology of epididymis entry with male mice (protocol 2) is given as “round spermatids in the epididymis”.
